pEC50, pIC50: −log10 of the molar value. Read-outs that look alike come from different tables or passages of the source.
Assays:
[1] = system: P388 murine leukemia cell line; test: P388 cytotoxicity (ATP-Lite, 72 hours); format: cell-based; conditions: Mus musculus, P388, 72 hours
Experimental: A P388 murine leukemia cell line was obtained from NCI, Frederick, Md. P388 cells were cultured in RPMI-1640 supplemented with 10% fetal bovine serum, 2 mM Glutamax, 1 mM sodium pyruvate, 0.1 mM non-essential amino acids and 10 mM HEPES. Cells were grown at 37° C. in a humidified 5% CO2 atmosphere. Exponentially growing P388 cells were plated at 5,000 cells/well in a 96-well flat-bottomed microtiter plate (Corning, Costar #3595). […] Cellular viability was determined 72 hours later by measuring intracellular ATP with ATP-Lite assay system. The effect of compounds on cell viability was calculated by comparing the ATP levels of cells exposed to test compound with those of cells exposed to DMSO. […] Data was analyzed by Prism software (GraphPad; San Diego, Calif.) by fitting it to a sigmoidal dose response curve.

T-47D cells = test: Caspase cascade activation / induction of apoptosis in T-47D cells (fluorogenic N-(Ac-DEVD)-N'-ethoxycarbonyl-R110 substrate); format: cell-based, human; conditions: for pEC50 / T-47D (48 hr) Ratio: T-47D
[2] = Homo sapiens, T47D, 24 hr, read-out: T-47D (24 hr) EC50
[3] = Homo sapiens, T47D, 48 hr, benzohydrazide table, read-out: T-47D (48 hr) EC50
[4] = Homo sapiens, T47D, 48 hr, read-out: T-47D (48 hr) EC50

pEC50 (T-47D cells; [2]) | pEC50 (T-47D cells; [4]) | Compound | other results
 |  | COc1ccc(N(C)c2nc(CCN)nc3ccccc23)cc1 [Example 212, [2-(2-Amino-ethyl)-quinazolin-4-yl]-(4-methoxy-phenyl)-methyl-amine] | pIC50 [1]: 6.60
 |  | COc1ccc(N(C)c2nc(CCl)nc3ccc(Br)cc23)cc1 [Example 208, (6-Bromo-2-chloromethyl-quinazolin-4-yl)-(4-methoxy-phenyl)-methyl-amine] | pIC50 [1]: 7.57
 |  | COc1ccccc1CN(C)c1nc(Cl)nc2ccccc12 [Example 177, (2-Chloro-quinazolin-4-yl)-(2-methoxy-benzyl)-methyl-amine] | pIC50 [1]: 6.01
 |  | COc1c(Cl)cc(N(C)c2nc(CCl)nc3ccccc23)cc1Cl [Example 251, (2-Chloromethyl-quinazolin-4-yl)-(3,5-dichloro-4-methoxy-phenyl)-methyl-amine] | pIC50 [1]: 5.68
 |  | CONc1nc(N(C)c2ccc(OC)cc2)c2ccccc2n1 [Example 172, N-{4-[(4-Methoxy-phenyl)-methyl-amino]-quinazolin-2-yl}-O-methyl-hydroxylamine] | pIC50 [1]: 8.70
 |  | COc1ccc(N(C)c2nc(CN)nc3ccc(F)cc23)cc1 [Example 205, (2-Aminomethyl-6-fluoro-quinazolin-4-yl)-(4-methoxy-phenyl)-methyl-amine] | pIC50 [1]: 7.72
 |  | COc1ccc(N(C)c2nc(CNC(=O)[C@@H](C)N)nc3ccccc23)cc1 [Example 248, (R)-2-Amino-N-{4-[(4-methoxy-phenyl)-methyl-amino]-quinazolin-2-ylmethyl}-propionamide] | pIC50 [1]: 6.65
 |  | CCOc1ccc(N(C)c2nc(CN3C(=O)c4ccccc4C3=O)nc3ccccc23)cc1Cl [Example 260, 2-{4-[(3-Chloro-4-ethoxy-phenyl)-methyl-amino]-quinazolin-2-ylmethyl}-isoindole-1,3-dione] | pIC50 [1]: 6.33
 |  | COc1ccc(N(C)c2nc(CN)nc3ccc(-c4ccccc4)cc23)cc1 [Example 243, (2-Aminomethyl-6-phenyl-quinazolin-4-yl)-(4-methoxy-phenyl)-methyl-amine] | pIC50 [1]: 5.38
8.70 |  | COc1ccc(N(C)c2nc(C)nc3ccccc23)cc1F [Example 85, (3-Fluoro-4-methoxy-phenyl)-(2-methyl-quinazolin-4-yl)-methyl-amine] | 
 |  | CSc1nc(N(C)NC(=O)c2ccccc2)c2ccccc2n1 | pEC50 (T-47D cells; [3]): 6.83; T-47D (48 hr) Ratio (T-47D cells; 48 hr, benzohydrazide table): 14.7
< 5.00 |  | COc1cnc(Nc2nc(C)nc3ccccc23)nc1 [Example 141, (5-Methoxy-pyrimidin-2-yl)-(2-methyl-quinazolin-4-yl)-amine] | 
7.54 | 7.66 | COc1ccc(N(C)c2nc(N)nc3ccccc23)cn1 [Example 49, N^4-(6-methoxypyridin-3-yl)-N^4-methyl-quinazoline-2,4-diamine] | 
 |  | CSc1nc(N(C)NC(=O)c2cccc(C)c2)c2ccccc2n1 | pEC50 (T-47D cells; [3]): 7.34; T-47D (48 hr) Ratio (T-47D cells; 48 hr, benzohydrazide table): 12.7
8.10 | 8.05 | COc1ccc(N(C)c2nc(N)nc3ccccc23)cc1 [Example 12, N^4-(4-Methoxy-phenyl)-methyl-quinazoline-2,4-diamine] | EC50 (T-47D cells; Homo sapiens, T47D, Table III, time not given, repeats 24 hr or 48 hr T-47D values of Table I, read-out: Caspase activation (EC50 nM)): 8 nM
7.80 |  | COc1ccc(N(C)c2nc(C)nc3ncccc23)cc1 [Example 92, (4-Methoxy-phenyl)-(2-methyl-pyrido[2,3-d]pyrimidin-4-yl)-methyl-amine] | 
 | 7.38 | CCCOc1ccc(N(C)c2nc(Cl)nc3ccccc23)cc1 [Example 70, (2-Chloro-quinazolin-4-yl)-(4-propoxy-phenyl)-methyl-amine] | 
 | 8.30 | CCOc1ccc(N(C)c2nc(Cl)nc3ccccc23)cc1 [Example 97, (2-Chloro-quinazolin-4-yl)-(4-ethoxy-phenyl)-methylamine] | 
7.80 |  | COc1ccc(N(C)c2nc(N(C)C)nc3ccccc23)cc1 [Example 122, (2-Dimethylamino-quinazolin-4-yl)-(4-methoxy-phenyl)-methyl-amine] | 

pEC50 (T-47D cells; [2]) | pEC50 (T-47D cells; [4]) | Compound | other results
 | < 5.00 | COc1cccc(Nc2nc(Cl)nc3ccccc23)c1 [Example 32, (2-Chloro-quinazolin-4-yl)-(3-methoxy-phenyl)-amine] | 
 | < 5.00 | COc1ccc(Nc2nc(Cl)nc3ccccc23)c(OC)c1 [Example 30, (2-Chloro-quinazolin-4-yl)-(2,4-dimethoxy-phenyl)-amine] | 
8.10 |  | CNc1nc(N(C)c2ccc(OC)cc2)c2ccccc2n1 [Example 123, (2-Methylamino-quinazolin-4-yl)-(4-methoxy-phenyl)-methyl-amine] | 
6.87 |  | CCOC(=O)c1nc(N(C)c2ccc(OC)cc2)c2ccccc2n1 [Example 117, Ethyl 4-(N-(4-Methoxy-phenyl)-N-methylamino)quinazoline-2-carboxylate] | 
 | 5.64 | COc1ccc(Oc2ncnc3ccccc23)cc1 [Example 71, 4-(4-Methoxy-phenoxy)-quinazoline] | 
7.25 | 7.05 | COc1ccc(N(C)c2nc(N3CCOCC3)nc3ccccc23)cc1 [Example 15, (4-Methoxy-phenyl)-methyl-(2-morpholin-4-yl-quinazolin-4-yl)-amine] | 
< 5.00 | < 5.00 | CN(c1ccccc1)c1nc(N(C)c2ccccc2)c2ccccc2n1 [Example 18, N^2,N^4-Dimethyl-N^2,N^4-diphenyl-quinazoline-2,4-diamine] | 
 | 7.96 | COc1ccc(N(C)c2nc(Cl)nc3c(C)cccc23)cc1 [Example 59, (2-Chloro-8-methyl-quinazolin-4-yl)-(4-methoxy-phenyl)-methyl-amine] | 
 | 6.73 | COc1ccc(N(C)c2nc(NCCCN(C)C)nc3ccccc23)cc1 [Example 47, N^2-(3-Dimethylamino-propyl)-N^4-(4-methoxy-phenyl)-N^4-methyl-quinazoline-2,4-diamine] | 
 | 6.86 | COc1ccc(N(C)c2nc(NCCO)nc3ccccc23)cn1 [Example 48, N^2-(2-Hydroxyethyl)-N^4-(6-methoxypyridin-3-yl)-N^4-methyl-quinazoline-2,4-diamine] | 
 |  | CSc1nc(N(C)NC(=O)c2ccc(Cl)cc2)c2ccccc2n1 | pEC50 (T-47D cells; [3]): 6.86; T-47D (48 hr) Ratio (T-47D cells; 48 hr, benzohydrazide table): 14.4
 | 8.30 | COc1ccc(N(C)c2nc(Cl)nc3ccc(C)cc23)cc1 [Example 56, (2-Chloro-6-methyl-quinazolin-4-yl)-(4-methoxy-phenyl)-methyl-amine] | 
7.57 |  | CNc1nc(N(C)c2ccc(OC)nc2)c2ccccc2n1 [Example 129, (2-Methylamino-quinazolin-4-yl)-(6-methoxy-pyridin-3-yl)-methyl-amine] | 
7.39 |  | Cc1nc(N(C)c2ccc(OC(C)C)cc2)c2ccccc2n1 [Example 86, (4-Isopropoxy-phenyl)-(2-methyl-quinazolin-4-yl)-methyl-amine] | 
< 5.00 |  | Cc1ccc(Nc2nc(Cl)nc3ccccc23)cc1 [Example 8, (2-Chloro-quinazolin-4-yl)-(4-methyl-phenyl)-amine] | 
7.74 | 7.66 | COc1ccc(N(C)c2ccnc3ccccc23)cc1 [Example 66, (4-Methoxy-phenyl)-methyl-(quinolin-4-yl)-amine] | 
< 5.00 |  | COc1c(Br)cc(N(C)c2nc(C)nc3ccc([N+](=O)[O-])cc23)cc1Br [Example 115, (3,5-Dibromo-4-methoxy-phenyl)-(2-methyl-6-nitro-quinazolin-4-yl)-methyl-amine] | 
< 5.00 |  | Cc1nc(N(C)c2ccncc2)c2ccccc2n1 [Example 136, (2-Methyl-quinazolin-4-yl)-(pyridin-4-yl)-methyl-amine] | 
